Results taken from US9617289B2, “RSV antiviral compounds” (JANSSEN R&D IRELAND, priority 2012, dated 2017).
Where a name gives a salt, the structure may show the parent alone. Read-outs that look alike come from different tables or passages of the source.

Test system: rgRSV224 virus
Test: Antiviral activity: inhibition of rgRSV224 (GFP-expressing RSV) replication in HeLa cells
Type: cell-based, respiratory syncytial virus
Settings: for EC50: human respiratory syncytial virus, HeLa, 72 h
Protocol: Black 96-well clear-bottom microtiter plates (Corning, Amsterdam, The Netherlands) were filled in duplicate using a customized robot system with serial 4-fold dilutions of compound in a final volume of 50 μl culture medium [RPMI medium without phenol red, 10% FBS, 0.04% gentamycin (50 mg/ml) and 0.5% DMSO]. Then, 100 μl of a HeLa cell suspension (5×10^4 cells/ml) in culture medium was added to each well followed by the addition of 50 μl rgRSV224 (MOI=0.02) virus in culture medium using a multidrop dispenser (Thermo Scientific, Erembodegem, Belgium). rgRSV224 virus is an engineered virus that includes an additional GFP gene (Hallak et al, 2000) and was in-licensed from the NIH (Bethesda, Md., USA). Medium, virus- and mock-infected controls were included in each test. Cells were incubated at 37° C. in a 5% CO2 atmosphere. Three days post-virus exposure, viral replication was quantified by measuring GFP expression in the cells by a MSM laser microscope (Tibotec, Beerse, Belgium). The EC50 was defined as the 50% inhibitory concentration for GFP expression. In parallel, compounds were incubated for three days in a set of white 96-well microtitier plates (Corning) and the cytotoxicity of compounds in HeLa cells was determined by measuring the ATP content of the cells using the ATPlite kit (PerkinElmer, Zaventem, Belgium) according to the manufacturer's instructions. The CC50 was defined as the 50% concentration for cytotoxicity. SI is calculated as CC50/EC50.

[1] = read-out: pEC50, rgRSV224 (MOI=0.02) in HeLa cells, GFP expression three days post-virus exposure (converted)
[2] = read-out: RSV-wt_pEC50, rgRSV224 (MOI=0.02) in HeLa cells, GFP expression three days post-virus exposure

| Compound | EC50 [1] [nM] | other results |
| --- | --- | --- |
| O=C1N(Cc2nc3cc(Cl)ccc3n2CCCC(F)(F)F)c2ccccc2C12CCN(Cc1ccccc1)CC2 [Compound 51, 1′-benzyl-1-((5-chloro-1-(4,4,4-trifluorobutyl)-1H-benzo[d]-imidazol-2-yl)methyl)spiro[indoline-3,4′-piperidin]-2-one] | 63.1 | – |
| O=C1N(Cc2nc3cc(Cl)ccc3n2CCCC(F)(F)F)c2ccccc2C12CCOCC2 [Compound 52, 1-((5-chloro-1-(4,4,4-trifluorobutyl)-1H-benzo[d]imidazol-2-yl)methyl)-2′,3′,5′,6′-tetrahydrospiro[indoline-3,4′-pyran]-2-one] | 2.51 | – |
| CC(C)(C)OC(=O)N1CCC2(CC1)C(=O)N(Cc1nc3cc(Cl)ccc3n1CCCC#N)c1cnccc12 [Compound 53, tert-butyl 1′-((5-chloro-1-(3-cyanopropyl)-1H-benzo[d]-imidazol-2-yl)methyl)-2′-oxo-1′,2′-dihydrospiro[piperidine-4,3′-pyrrolo[2,3-c]pyridine]-1-carboxylate] | < 0.158 | – |
| CS(=O)(=O)CCCn1c(CN2C(=O)C3(CCCC3)c3ccncc32)cc2cc(Cl)ccc21 [Compound 54, 1′-({5-chloro-1-[3-(methylsulfonyl)propyl]-1H-indol-2-yl}methyl)spiro [cyclopentane-1,3′-pyrrolo[2,3-c]pyridin]-2′(1′H)-one] | 1.58 | – |
| CS(=O)(=O)CCCn1c(CN2C(=O)C3(CCOCC3)c3cnccc32)cc2cc(Cl)ccc21 [Compound 57] | 83.2 | – |
| CC(C)(C)OC(=O)N1CC2(C1)C(=O)N(Cc1cc3cc(Cl)ccc3n1CCCC#N)c1ccccc12 [Compound 58, tert-butyl 1′-{[5-chloro-1-(3-cyanopropyl)-1H-indol-2-yl]-methyl}-2′-oxo-1′,2′-dihydro-1H-spiro[azetidine-3,3′-indole]-1-carboxylate] | < 0.2 | – |
| N#CCCCn1c(CN2C(=O)C3(CNC3)c3ccccc32)cc2cc(Cl)ccc21 [Compound 59, 4-{5-chloro-2-[(2′-oxospiro[azetidine-3,3′-indol]-1′(2′H )-yl)-methyl]-1H-indol-1-yl}butanenitrile] | 5.01 | – |
| COC(=O)N1CC2(C1)C(=O)N(Cc1cc3cc(Cl)ccc3n1CCCC#N)c1ccccc12 [Compound 60, 1′-{[5-chloro-1-(3-cyanopropyl)-1H-indol-2-yl]methyl}-2′-oxo-1′,2′-dihydro-1H-spiro[azetidine-3,3′-indole]-1-carboxylate] | 0.251 | – |
| N#CCCCn1c(CN2C(=O)C3(CN(S(=O)(=O)C4CC4)C3)c3ccccc32)cc2cc(Cl)ccc21 [Compound 61, 4-(5-chloro-2-{[1-(cyclopropylsulfonyl)-2′-oxospiro-[azetidine-3,3′-indol]-1′(2′H)-yl]methyl}-1H-indol-1-yl)-butanenitrile] | 0.398 | – |
| CC(C)(C)OC(=O)N1CCC2(CC1)C(=O)N(Cc1cc3cc(Cl)ccc3n1CCCC#N)c1cnccc12 [Compound 63, tert-butyl 1′-((5-chloro-1-(3-cyanopropyl)-1H-indol-2-yl)-methyl)-2′-oxo-1′,2′-dihydrospiro[piperidine-4,3′-pyrrolo-[2,3-c]pyridine]-1-carboxylate] | 0.158 | – |
| CC(=O)N1CCC2(CC1)C(=O)N(Cc1cc3cc(Cl)ccc3n1CCCC#N)c1cnccc12 [Compound 64, 4-(2-((1-acetyl-2′-oxospiro[piperidine-4,3′-pyrrolo[2,3-c]-pyridin]-1′(2′H)-yl)methyl)-5-chloro-1H-indol-1-yl)butane-nitrile] | 0.251 | – |
| O=C1N(Cc2nc3nc(Cl)ccc3n2CCCC(F)(F)F)c2cnccc2C12CCCC2 [Compound 65, 1′-((5-chloro-1-(4,4,4-trifluorobutyl)-1H-imidazo[4,5-b]-pyridin-2-yl)methyl)spiro[cyclopentane-l,3′-pyrrolo[2,3-c]-pyridin]-2′(1′H)-one] | 0.631 | – |
| CC(C)(C)OC(=O)N1CCC2(CC1)C(=O)N(Cc1nc3ncccc3n1CCCC(F)(F)F)c1cnccc12 [Compound 66, tert-butyl-2′-oxo-1′-((1-(4,4,4-trifluorobutyl)-1H-imidazo-[4,5-b]pyridine-2-yl)methyl)-1′,2′-dihydrospiro[piperidine-4,3′-pyrrolo[2,3-c]pyridine]-1-carboxylate] | 3.16 | – |
| O=C1N(Cc2nc3nc(Cl)ccc3n2CCCC(F)(F)F)c2cnccc2C12CCOCC2 [Compound 67, 1′-((5-chloro-1-(4,4,4-trifluorobutyl)-1H-imidazo[4,5-b]-pyridin-2-yl)methyl)-2,3,5,6-tetrahydrospiro[pyran-4,3′-pyrrolo[2,3-c]pyridin]-2′(1′H)-one] | – | pEC50 (rgRSV224 (MOI=0.02) in HeLa cells, GFP expression three days post-virus exposure): 10.3 |
| CC(C)(C)OC(=O)N1CCC2(CC1)C(=O)N(Cc1nc3nc(Cl)ccc3n1CCCC(F)(F)F)c1cnccc12 [Compound 68, tert-butyl-1′-((5-chloro-1-(4,4,4-trifluorobutyl)-1H-imidazo-[4,5-b]pyridin-2-yl)methyl)-2′-oxo-1′,2′-dihydrospiro-[piperidine-4,3′-pyrrolo[2,3-c]pyridine]-1-carboxylate] | 0.501 | – |
| CC(C)(C)OC(=O)N1CCC2(CC1)C(=O)N(Cc1cc3nc(Cl)ccc3n1CCCCF)c1cnccc12 [Compound 69, tert-butyl 1′-((5-chloro-1-(4-fluorobutyl)-1H-pyrrolo[3,2-b]-pyridin-2-yl)methy)-2′-oxo-1′,2′-dihydrospiro[piperidine-4,3′-pyrrolo[2,3-c]pyridine]-1-carboxylate] | 5.01 | – |
| CC(C)(O)C(=O)N1CCC2(CC1)C(=O)N(Cc1cc3cc(Cl)ccc3n1CCCS(C)(=O)=O)c1cnccc12 [Compound 74, 1′-((5-chloro-1-(3-(methylsulfonyl)propyl)-1H-indol-2-yl)-methyl)-1-(2-hydroxy-2-methylpropanoyl)spiro[piperidine-4,3′-pyrrolo[2,3-c]pyridin]-2′(1′H)-one] | 0.2 | – |
| COC(=O)N1CCC2(CC1)C(=O)N(Cc1cc3cc(Cl)ccc3n1CCCC#N)c1cnccc12 [Compound 76] | < 0.158 | – |
| CC(C)OC(=O)N1CCC2(CC1)C(=O)N(Cc1cc3cc(Cl)ccc3n1CCCC#N)c1cnccc12 [Compound 77, isopropyl 1′-((5-chloro-1-(3-cyanopropyl)-1H-indol-2-yl)-methyl)-2′-oxo-1′,2′-dihydrospiro[piperidine-4,3′-pyrrolo-[2,3-c]pyridine]-1-carboxylate] | < 0.158 | – |
| N#CCCCn1c(CN2C(=O)C3(CCNCC3)c3ccncc32)cc2cc(Cl)ccc21 [Compound 78, 4-(5-chloro-2-((2′-oxospiro[piperidine-4,3′-pyrrolo[2,3-c]-pyridin]-1′(2′H)-yl)methyl)-1H-indol-1-yl)butanenitrile hydrochloride] | 0.631 | – |
| N#CCCCn1c(CN2C(=O)C3(CCNCC3)c3ccncc32)nc2cc(Cl)ccc21 [Compound 84, 4-(5-chloro)-2-((2′-oxospiro[piperidine-4,3′-pyrrolo[2,3-c]-pyridin]-1′(2′H)-yl)methyl)-1H-benzo[d]imidazol-1-yl)butanenitrile hydrochloride] | 0.631 | – |
| CC(C)(O)C(=O)N1CCC2(CC1)C(=O)N(Cc1cc3cc(Cl)ccc3n1CCCC#N)c1cnccc12 [Compound 86, 4-(5-chloro-2-((1-(2-hydroxy-2-methylpropanoyl)-2′-oxospiro[piperidine-4,3′-pyrrolo[2,3-c]pyridin]-1′(2′H)-yl)methyl)-1H-indol-1-yl)butanenitrile] | < 0.158 | – |
| CC(=O)N1CC2(C1)C(=O)N(Cc1nc3cc(Cl)ccc3n1CCCC#N)c1ccccc12 [Compound 88, 4-(2-((1-acetyl-2′-oxospiro[azetidine-3,3′-indolin]-1′-yl)-methyl)-5-chloro-1H-benzo[d]imidazol-1-yl)butanenitrile] | 0.398 | – |
| N#CCCCn1c(CN2C(=O)C3(CCN(S(N)(=O)=O)CC3)c3ccncc32)nc2cc(Cl)ccc21 [Compound 89, 1′-((5-chloro-1-(3-cyanopropyl)-1H-benzo[d]imidazol-2-yl)-methyl)-2′-oxo-1′,2′-dihydrospiro[piperidine-4,3′-pyrrolo-[2,3-c]pyridine]-1-sulfonamide] | 0.0794 | – |
| N#CCCCn1c(CN2C(=O)C3(CN(S(=O)(=O)c4cccs4)C3)c3ccccc32)nc2cc(Cl)ccc21 [Compound 91] | – | EC50 [2]: 0.234 nM |
| N#CCCCn1c(CN2C(=O)C3(CN(C(=O)OC4COC4)C3)c3ccccc32)nc2cc(Cl)ccc21 [Compound 92, Oxetan-3-yl 1′-{[5-chloro-1-(3-cyanopropyl)-1H-benzimidazol-2-yl]methyl}-2′-oxo-1′,2′-dihydro-1H-spiro[azetidine-3,3′-indole]-1-carboxylate] | – | EC50 [2]: 0.0692 nM |
| N#CCCCn1c(CN2C(=O)C3(CN(S(=O)(=O)c4ccc(F)cc4)C3)c3ccccc32)nc2cc(Cl)ccc21 [Compound 93, 4-[5-Chroro-2-({1-[(4-fluorophenyl)sulfonyl]-2′-oxospiro-[azetidine-3,3′-indol]-1′(2′H)-yl}methyl)-1H-benzimidazol-1-yl]butanenitrile] | – | EC50 [2]: 1.62 nM |
